Publication PMC5290327, “SC83288 is a clinical development candidate for the treatment of severe malaria” (Nature Communications, 2017)

Tests used:
Experiment in all cases: KINOMEscan
Format in all cases: binding
Details in all cases: read-out: Remaining enzyme activity
GRK4 = biological target: T1, GRK4 (Homo sapiens, UniProt P32298)
T1 construct: purchased Ambit (DiscoverX) KINOMEscan; Cerep
Protocol: (§1) The KINOMEscan was carried out by Ambit (San Diego, USA) according to a previously established protocol. The experiment was based on a competition binding assay that quantitatively measures the ability of a compound to compete with an immobilized, active-site directed ligand. The assay is performed by combining three components: DNA-tagged kinase; immobilized ligand; and a test compound. The ability of the test compound to compete with the immobilized ligand is measured via quantitative PCR of the DNA tag.
(§2) For most assays, kinase-tagged T7 phage strains were grown in parallel in 24-well blocks in an Escherichia coli host derived from the BL21 strain. E. coli were grown to log-phase and infected with T7 phage from a frozen stock and incubated with shaking at 32 °C until lysis (90–150 min). The lysates were centrifuged (6,000g) and filtered (0.2 μm) to remove cell debris. The remaining kinases were produced in HEK-293 cells (Sigma Aldrich, catalogue number: 85120602) and subsequently tagged with DNA for quantitative PCR detection. […] The liganded beads were blocked with excess biotin and washed with blocking buffer (SeaBlock (Pierce), 1% bovine serum albumin, 0.05% Tween 20 and 1 mM dithiothreitol) to remove unbound ligand and to reduce non-specific phage binding. […] SC81458 was prepared as 40x stock in 100% DMSO and directly diluted into the assay to a final concentration of 10 μM. All reactions were performed in polypropylene 384-well plates in a final volume of 0.04 ml. […] The kinase concentration in the eluates was measured by quantitative PCR.

PIK4Cb = biological target: T2, PIK4Cb (Homo sapiens, UniProt Q9UBF8)
T2 construct: purchased Ambit (DiscoverX) KINOMEscan; Cerep
Protocol: as §1, §2

IKK-alpha = biological target: T3, IKK-alpha (Homo sapiens, UniProt O15111)
T3 construct: purchased Ambit (DiscoverX) KINOMEscan; Cerep
Protocol: as §1, §2

ABL1(T315I) = biological target: T4, ABL1(T315I) (Homo sapiens, UniProt P00519, T315I)
T4 construct: purchased Ambit (DiscoverX) KINOMEscan; Cerep
Protocol: as §1, §2

MEK4 = biological target: T5, MEK4 (Homo sapiens, UniProt P45985)
T5 construct: purchased Ambit (DiscoverX) KINOMEscan; Cerep
Protocol: as §1, §2

MAP3K15 = biological target: T6, MAP3K15 (Homo sapiens, UniProt Q6ZN16)
T6 construct: purchased Ambit (DiscoverX) KINOMEscan; Cerep
Protocol: as §1, §2

ERK8 = biological target: T7, ERK8 (Homo sapiens, UniProt Q8TD08)
T7 construct: purchased Ambit (DiscoverX) KINOMEscan; Cerep
Protocol: as §1, §2

LIMK1 = biological target: T8, LIMK1 (Homo sapiens, UniProt P53667)
T8 construct: purchased Ambit (DiscoverX) KINOMEscan; Cerep
Protocol: as §1, §2

GSK3a = biological target: T9, GSK3a (Homo sapiens, UniProt P49840)
T9 construct: purchased Ambit (DiscoverX) KINOMEscan; Cerep
Protocol: as §1, §2

PYK2 = biological target: T10, PYK2 (Homo sapiens, UniProt Q14289)
T10 construct: purchased Ambit (DiscoverX) KINOMEscan; Cerep
Protocol: as §1, §2

MAP4K2 = biological target: T11, MAP4K2 (Homo sapiens, UniProt Q12851)
T11 construct: purchased Ambit (DiscoverX) KINOMEscan; Cerep
Protocol: as §1, §2

AURKC = biological target: T12, AURKC (Homo sapiens, UniProt Q9UQB9)
T12 construct: purchased Ambit (DiscoverX) KINOMEscan; Cerep
Protocol: as §1, §2

MEK3 = biological target: T13, MEK3 (Homo sapiens, UniProt P46734)
T13 construct: purchased Ambit (DiscoverX) KINOMEscan; Cerep
Protocol: as §1, §2

NDR2 = biological target: T14, NDR2 (Homo sapiens, UniProt Q9Y2H1)
T14 construct: purchased Ambit (DiscoverX) KINOMEscan; Cerep
Protocol: as §1, §2

NEK6 = biological target: T15, NEK6 (Homo sapiens, UniProt Q9HC98)
T15 construct: purchased Ambit (DiscoverX) KINOMEscan; Cerep
Protocol: as §1, §2

MYO3a = biological target: T16, MYO3a (Homo sapiens, UniProt Q8NEV4)
T16 construct: purchased Ambit (DiscoverX) KINOMEscan; Cerep
Protocol: as §1, §2

MRCKA = biological target: T17, MRCKA (Homo sapiens, UniProt Q5VT25)
T17 construct: purchased Ambit (DiscoverX) KINOMEscan; Cerep
Protocol: as §1, §2

TRKa = biological target: T18, TRKa (Homo sapiens, UniProt P04629)
T18 construct: purchased Ambit (DiscoverX) KINOMEscan; Cerep
Protocol: as §1, §2

MARK3 = biological target: T19, MARK3 (Homo sapiens, UniProt P27448)
T19 construct: purchased Ambit (DiscoverX) KINOMEscan; Cerep
Protocol: as §1, §2

PLK4 = biological target: T20, PLK4 (Homo sapiens, UniProt O00444)
T20 construct: purchased Ambit (DiscoverX) KINOMEscan; Cerep
Protocol: as §1, §2

[1] = biological target: T21, EGFR(L747-E749del, A750P) (Homo sapiens, UniProt P00533, A750P/DEL747-749)
T21 construct: purchased Ambit (DiscoverX) KINOMEscan; Cerep
Protocol: as §1, §2

LATS2 = biological target: T22, LATS2 (Homo sapiens, UniProt Q9NRM7)
T22 construct: purchased Ambit (DiscoverX) KINOMEscan; Cerep
Protocol: as §1, §2

BTK = biological target: T23, BTK (Homo sapiens, UniProt Q06187)
T23 construct: purchased Ambit (DiscoverX) KINOMEscan; Cerep
Protocol: as §1, §2

DMPK2 = biological target: T24, DMPK2 (Homo sapiens, UniProt Q6DT37)
T24 construct: purchased Ambit (DiscoverX) KINOMEscan; Cerep
Protocol: as §1, §2

TNK1 = biological target: T25, TNK1 (Homo sapiens, UniProt Q13470)
T25 construct: purchased Ambit (DiscoverX) KINOMEscan; Cerep
Protocol: as §1, §2

MAPKAPK5 = biological target: T26, MAPKAPK5 (Homo sapiens, UniProt Q8IW41)
T26 construct: purchased Ambit (DiscoverX) KINOMEscan; Cerep
Protocol: as §1, §2

GRK7 = biological target: T27, GRK7 (Homo sapiens, UniProt Q8WTQ7)
T27 construct: purchased Ambit (DiscoverX) KINOMEscan; Cerep
Protocol: as §1, §2

CHEK1 = biological target: T28, CHEK1 (Homo sapiens, UniProt O14757)
T28 construct: purchased Ambit (DiscoverX) KINOMEscan; Cerep
Protocol: as §1, §2

EPHB1 = biological target: T29, EPHB1 (Homo sapiens, UniProt P54762)
T29 construct: purchased Ambit (DiscoverX) KINOMEscan; Cerep
Protocol: as §1, §2

SLK = biological target: T30, SLK (Homo sapiens, UniProt Q9H2G2)
T30 construct: purchased Ambit (DiscoverX) KINOMEscan; Cerep
Protocol: as §1, §2

RIPK1 = biological target: T31, RIPK1 (Homo sapiens, UniProt Q13546)
T31 construct: purchased Ambit (DiscoverX) KINOMEscan; Cerep
Protocol: as §1, §2

SRPK1 = biological target: T32, SRPK1 (Homo sapiens, UniProt Q96SB4)
T32 construct: purchased Ambit (DiscoverX) KINOMEscan; Cerep
Protocol: as §1, §2

[2] = biological target: T33, RPS6KA1(Kin.Dom.1-N-term) (Homo sapiens, UniProt Q15418)
T33 construct: RPS6KA1(Kin.Dom.1-N-term); purchased Ambit (DiscoverX) KINOMEscan; Cerep
Protocol: as §1, §2

T26 sequence (Q8IW41 whole entry): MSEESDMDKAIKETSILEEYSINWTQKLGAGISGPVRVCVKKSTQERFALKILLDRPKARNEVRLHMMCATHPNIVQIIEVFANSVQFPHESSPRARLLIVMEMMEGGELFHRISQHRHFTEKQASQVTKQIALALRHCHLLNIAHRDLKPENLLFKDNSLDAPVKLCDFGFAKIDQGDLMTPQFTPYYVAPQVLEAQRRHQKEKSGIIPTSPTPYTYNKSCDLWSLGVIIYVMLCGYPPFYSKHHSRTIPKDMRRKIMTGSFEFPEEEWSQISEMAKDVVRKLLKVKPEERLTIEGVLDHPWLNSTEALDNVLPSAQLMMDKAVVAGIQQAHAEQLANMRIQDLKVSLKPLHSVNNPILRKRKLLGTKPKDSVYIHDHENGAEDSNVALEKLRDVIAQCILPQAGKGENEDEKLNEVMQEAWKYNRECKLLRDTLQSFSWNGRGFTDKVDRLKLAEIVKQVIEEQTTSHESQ
T10 sequence (Q14289 whole entry): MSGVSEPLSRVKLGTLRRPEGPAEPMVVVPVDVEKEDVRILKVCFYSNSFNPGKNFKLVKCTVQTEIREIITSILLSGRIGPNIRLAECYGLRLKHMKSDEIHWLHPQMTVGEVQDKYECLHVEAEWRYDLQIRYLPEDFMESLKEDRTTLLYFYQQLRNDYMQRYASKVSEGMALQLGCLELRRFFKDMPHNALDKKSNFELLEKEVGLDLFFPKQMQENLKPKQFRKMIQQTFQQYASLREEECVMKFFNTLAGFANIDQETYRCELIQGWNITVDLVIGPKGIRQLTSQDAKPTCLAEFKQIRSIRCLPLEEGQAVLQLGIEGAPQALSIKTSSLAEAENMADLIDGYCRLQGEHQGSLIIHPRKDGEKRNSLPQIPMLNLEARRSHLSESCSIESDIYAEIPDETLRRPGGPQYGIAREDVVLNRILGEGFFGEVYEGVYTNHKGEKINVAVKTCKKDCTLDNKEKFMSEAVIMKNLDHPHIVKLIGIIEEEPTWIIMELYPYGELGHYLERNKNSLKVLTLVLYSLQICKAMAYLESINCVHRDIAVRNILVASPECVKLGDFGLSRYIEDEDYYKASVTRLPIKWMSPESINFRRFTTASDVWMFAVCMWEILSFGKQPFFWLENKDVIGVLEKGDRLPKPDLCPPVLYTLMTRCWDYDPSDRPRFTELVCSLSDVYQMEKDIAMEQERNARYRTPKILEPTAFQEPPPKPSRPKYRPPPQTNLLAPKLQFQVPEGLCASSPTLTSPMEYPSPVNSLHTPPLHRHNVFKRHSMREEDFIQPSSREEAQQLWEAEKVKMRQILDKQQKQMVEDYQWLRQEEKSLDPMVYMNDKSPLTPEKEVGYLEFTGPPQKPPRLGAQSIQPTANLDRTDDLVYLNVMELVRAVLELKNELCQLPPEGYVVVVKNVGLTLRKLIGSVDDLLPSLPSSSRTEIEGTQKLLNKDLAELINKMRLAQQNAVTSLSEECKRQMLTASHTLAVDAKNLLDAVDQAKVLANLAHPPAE
T18 sequence (P04629 33-796): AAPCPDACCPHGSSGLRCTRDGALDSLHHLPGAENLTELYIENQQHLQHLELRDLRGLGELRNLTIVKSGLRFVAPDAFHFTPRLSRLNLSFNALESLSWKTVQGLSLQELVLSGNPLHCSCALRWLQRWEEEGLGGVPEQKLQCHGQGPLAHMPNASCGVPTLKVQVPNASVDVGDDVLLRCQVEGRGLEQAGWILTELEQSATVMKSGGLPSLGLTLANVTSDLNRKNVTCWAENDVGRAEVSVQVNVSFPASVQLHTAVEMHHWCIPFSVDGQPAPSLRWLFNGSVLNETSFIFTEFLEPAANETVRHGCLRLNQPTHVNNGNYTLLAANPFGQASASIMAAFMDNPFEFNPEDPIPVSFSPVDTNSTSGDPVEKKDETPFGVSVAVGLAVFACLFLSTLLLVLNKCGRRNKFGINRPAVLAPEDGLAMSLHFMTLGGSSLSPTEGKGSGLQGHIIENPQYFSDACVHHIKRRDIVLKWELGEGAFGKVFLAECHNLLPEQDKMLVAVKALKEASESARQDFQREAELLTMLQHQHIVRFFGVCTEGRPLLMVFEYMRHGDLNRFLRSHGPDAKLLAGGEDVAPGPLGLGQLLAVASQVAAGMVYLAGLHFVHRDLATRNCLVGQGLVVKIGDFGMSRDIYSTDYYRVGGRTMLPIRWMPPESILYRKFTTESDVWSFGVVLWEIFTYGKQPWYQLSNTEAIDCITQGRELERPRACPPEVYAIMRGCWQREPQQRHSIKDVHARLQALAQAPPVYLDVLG
T3 sequence (O15111 whole entry): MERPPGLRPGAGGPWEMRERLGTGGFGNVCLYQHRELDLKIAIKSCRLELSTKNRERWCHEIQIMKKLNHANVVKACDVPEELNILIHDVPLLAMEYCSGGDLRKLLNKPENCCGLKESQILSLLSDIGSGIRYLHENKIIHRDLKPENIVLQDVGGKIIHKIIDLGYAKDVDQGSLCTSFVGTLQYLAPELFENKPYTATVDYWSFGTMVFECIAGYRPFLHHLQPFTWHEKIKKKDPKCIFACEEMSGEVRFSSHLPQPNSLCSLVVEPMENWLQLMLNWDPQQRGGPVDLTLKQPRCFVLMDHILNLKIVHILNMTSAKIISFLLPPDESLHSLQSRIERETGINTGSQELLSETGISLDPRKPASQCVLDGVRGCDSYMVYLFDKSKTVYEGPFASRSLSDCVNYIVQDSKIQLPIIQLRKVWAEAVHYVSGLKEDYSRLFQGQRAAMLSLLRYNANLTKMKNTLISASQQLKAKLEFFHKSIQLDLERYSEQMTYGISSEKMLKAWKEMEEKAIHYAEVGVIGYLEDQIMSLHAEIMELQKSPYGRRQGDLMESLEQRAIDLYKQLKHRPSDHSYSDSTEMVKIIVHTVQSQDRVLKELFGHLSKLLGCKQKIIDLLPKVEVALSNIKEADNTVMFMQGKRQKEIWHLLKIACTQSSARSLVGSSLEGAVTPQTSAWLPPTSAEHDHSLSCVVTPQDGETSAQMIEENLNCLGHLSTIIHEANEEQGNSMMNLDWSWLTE
T29 sequence (P54762 18-984): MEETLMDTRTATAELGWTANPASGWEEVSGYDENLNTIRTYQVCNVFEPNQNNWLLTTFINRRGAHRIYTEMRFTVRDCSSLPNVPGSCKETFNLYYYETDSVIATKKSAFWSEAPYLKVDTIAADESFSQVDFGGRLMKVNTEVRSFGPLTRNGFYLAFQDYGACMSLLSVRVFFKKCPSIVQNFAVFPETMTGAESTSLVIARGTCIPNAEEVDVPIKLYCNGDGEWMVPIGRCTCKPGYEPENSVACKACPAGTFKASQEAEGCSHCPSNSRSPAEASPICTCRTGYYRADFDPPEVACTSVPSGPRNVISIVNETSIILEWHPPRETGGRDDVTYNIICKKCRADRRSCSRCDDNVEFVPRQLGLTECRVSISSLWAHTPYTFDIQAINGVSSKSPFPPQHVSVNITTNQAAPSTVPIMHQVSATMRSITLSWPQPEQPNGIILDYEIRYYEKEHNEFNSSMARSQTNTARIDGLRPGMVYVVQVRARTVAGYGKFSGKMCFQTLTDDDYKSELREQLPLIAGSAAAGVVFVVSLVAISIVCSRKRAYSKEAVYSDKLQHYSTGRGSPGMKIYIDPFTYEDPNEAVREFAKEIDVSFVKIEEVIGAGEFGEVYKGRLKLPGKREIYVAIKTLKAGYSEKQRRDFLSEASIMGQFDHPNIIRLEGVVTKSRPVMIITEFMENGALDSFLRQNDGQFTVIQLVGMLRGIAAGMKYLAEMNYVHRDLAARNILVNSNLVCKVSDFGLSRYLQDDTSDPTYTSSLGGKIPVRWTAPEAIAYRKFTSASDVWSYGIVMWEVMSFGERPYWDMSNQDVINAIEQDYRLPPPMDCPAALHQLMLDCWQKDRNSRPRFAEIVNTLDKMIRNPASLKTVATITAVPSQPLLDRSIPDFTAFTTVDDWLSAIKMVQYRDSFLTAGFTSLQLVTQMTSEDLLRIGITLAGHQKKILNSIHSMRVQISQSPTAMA
T7 sequence (Q8TD08 whole entry): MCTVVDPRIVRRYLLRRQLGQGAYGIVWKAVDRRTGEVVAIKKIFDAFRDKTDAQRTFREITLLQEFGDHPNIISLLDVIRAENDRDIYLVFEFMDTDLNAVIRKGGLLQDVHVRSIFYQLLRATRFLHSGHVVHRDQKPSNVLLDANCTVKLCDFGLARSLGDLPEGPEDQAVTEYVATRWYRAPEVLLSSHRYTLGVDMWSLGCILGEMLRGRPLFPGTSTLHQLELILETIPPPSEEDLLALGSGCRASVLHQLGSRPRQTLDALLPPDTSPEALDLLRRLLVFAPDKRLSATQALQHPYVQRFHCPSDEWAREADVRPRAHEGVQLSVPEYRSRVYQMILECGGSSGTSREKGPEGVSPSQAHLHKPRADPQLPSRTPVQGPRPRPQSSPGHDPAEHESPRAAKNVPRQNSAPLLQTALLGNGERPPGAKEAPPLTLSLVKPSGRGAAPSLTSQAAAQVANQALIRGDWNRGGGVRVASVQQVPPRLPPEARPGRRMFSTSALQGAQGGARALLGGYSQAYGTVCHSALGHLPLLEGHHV
T21 sequence (P00533 with tags, fused parts or gaps DEL747-749/A750P limits assumed): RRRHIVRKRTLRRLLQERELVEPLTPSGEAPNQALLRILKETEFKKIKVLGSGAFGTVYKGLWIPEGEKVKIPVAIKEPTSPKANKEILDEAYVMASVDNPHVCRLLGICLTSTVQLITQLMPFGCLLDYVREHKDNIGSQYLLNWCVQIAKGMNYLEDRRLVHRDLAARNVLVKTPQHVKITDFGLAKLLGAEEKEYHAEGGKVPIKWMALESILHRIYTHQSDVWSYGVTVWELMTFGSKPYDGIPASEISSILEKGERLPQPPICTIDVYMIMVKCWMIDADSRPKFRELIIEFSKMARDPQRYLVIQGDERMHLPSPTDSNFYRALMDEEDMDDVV

## CCCCN1CCN(C(=N)c2cccc(NC(=O)Nc3ccc(S(=O)(=O)NCc4ccc(S(N)(=O)=O)cc4)cc3)c2)CC1 [SC81458, 4-(3-(3-((4-butylpiperazin-1-yl)(imino)methyl)phenyl)ureido)-N-(4-sulfamoylbenzyl) benzenesulfonamide]
GRK4
  remaining binding at 10 µM: 92%
PIK4Cb
  remaining binding at 10 µM: 100%
IKK-alpha
  remaining binding at 10 µM: 100%
ABL1(T315I)
  remaining binding at 10 µM: 100%
MEK4
  remaining binding at 10 µM: 100%
MAP3K15
  remaining binding at 10 µM: 100%
ERK8
  remaining binding at 10 µM: 100%
LIMK1
  remaining binding at 10 µM: 76%
GSK3a
  remaining binding at 10 µM: 100%
PYK2
  remaining binding at 10 µM: 98%
MAP4K2
  remaining binding at 10 µM: 100%
AURKC
  remaining binding at 10 µM: 73%
MEK3
  remaining binding at 10 µM: 100%
NDR2
  remaining binding at 10 µM: 100%
NEK6
  remaining binding at 10 µM: 100%
MYO3a
  remaining binding at 10 µM: 100%
MRCKA
  remaining binding at 10 µM: 100%
TRKa
  remaining binding at 10 µM: 100%
MARK3
  remaining binding at 10 µM: 99%
PLK4
  remaining binding at 10 µM: 93%
[1]
  remaining binding at 10 µM: 86%
LATS2
  remaining binding at 10 µM: 100%
BTK
  remaining binding at 10 µM: 100%
DMPK2
  remaining binding at 10 µM: 100%
TNK1
  remaining binding at 10 µM: 70%
MAPKAPK5
  remaining binding at 10 µM: 91%
GRK7
  remaining binding at 10 µM: 100%
CHEK1
  remaining binding at 10 µM: 98%
EPHB1
  remaining binding at 10 µM: 84%
SLK
  remaining binding at 10 µM: 100%
RIPK1
  remaining binding at 10 µM: 100%
SRPK1
  remaining binding at 10 µM: 100%
[2]
  remaining binding at 10 µM: 100%
